Laboratory results from patent US12667585B2, “Immunotherapeutic nanoparticles and methods relating thereto” (Wake Forest University Health Sciences, priority 2019, dated 2026).

Test system: BMDM, BMDC or AM cells
Assay: Real time RT-PCR of type I IFN and other inflammatory response genes
Format: cell-based, C57BL/6 mouse
Conditions: 100 nM cGAMP, 4 h
Method: Real time RT-PCR of type I IFN and other inflammatory response genes induced by NP-cGAMP. BMDM, BMDC or AM cells […] were seeded into 6-well plates and cultured for 24 h. The cells were then incubated at 37° C. with free cGAMP or NP-cGAMP (100 nM cGAMP) suspended in complete culture medium for 4 h. All cellular RNA was collected using TRIzol reagent (Thermo Fisher). One microgram of total RNA was transcribed into cDNA using High-Capacity cDNA Reverse Transcription Kit (Thermo Fisher), and real-time quantitative PCR (qPCR) was performed using PowerUp SYBR Green Master Mix (Thermo Fisher) with primers for amplification of Gapdh, Ifnb1, Cxcl9, Cxcl10, Tnf, Il6, Il12b, Il1b, Ifna1, Il10, and Tgfb1 genes. mRNA levels were normalized against the housekeeping gene GAPDH.

SMILES: Nc1nc2c(ncn2[C@@H]2O[C@@H]3COP(=O)(O)O[C@H]4[C@@H](O)[C@H](n5cnc6c(N)ncnc65)O[C@@H]4COP(=O)(O)O[C@@H]2[C@@H]3O)c(=O)[nH]1 [free cGAMP, cyclic [G(2′,5′)pA(3′,5′)p]]
- expression of Ifnb1, Ifna1 and other proinflammatory genes (Tnf, Il1b, Il6, Il12b, Cxcl9,10): only a modest increase
